Test results published in PMC5775428, “Towards an experimental classification system for membrane active peptides” (Scientific Reports, 2018).
Where two headings read alike, the source gives them in different places.

Assays:
[1] = test system: Escherichia coli; details: Escherichia coli; for Minimum inhibitory concentration, Average: average of triplicates
Method in brief: (§1)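 Broth microdilution MICs followed CLSI M7-A10 for bacteria, with peptides tested at 0.5 to 256 μM. MIC was the lowest concentration at which no cells were seen by optical microscopy. Three biological repeats, each with two technical replicates.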

[2] = test system: Pseudomonas syringae pv. tabaci; details: Pseudomonas syringae pv. tabaci; for Minimum inhibitory concentration, Average: average of triplicates
Method in brief: as §1

[3] = test system: Erwinia carotovora; details: Erwinia carotovora; for Minimum inhibitory concentration, Average: average of triplicates
Method in brief: as §1

[4] = test system: Xanthomonas campestris; details: for Minimum inhibitory concentration, Average: average of triplicates
Method in brief: as §1

[5] = test system: Staphylococcus aureus; details: Staphylococcus aureus; for Minimum inhibitory concentration, Average: average of triplicates
Method in brief: as §1

[6] = test system: Bacillus subtilis; details: Bacillus subtilis; for Minimum inhibitory concentration, Average: average of triplicates
Method in brief: as §1

[7] = test system: Cryptococcus neoformans; details: Cryptococcus neoformans; for Minimum inhibitory concentration, Average: average of triplicates
Method in brief: (§2)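 MICs determined per CLSI M7-A10 (bacteria) and M27-A3 (yeasts) protocols, peptides tested at 0.5 to 256 μM. MIC taken as the lowest concentration with no cells seen by optical microscopy; three biological repeats with 2 technical replicates each.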

[8] = test system: Candida albicans; details: Candida albicans; for Minimum inhibitory concentration, Average: average of triplicates
Method in brief: as §2

[9] = test system: Bacillus cereus; details: Bacillus cereus; for Minimum inhibitory concentration, Average: average of triplicates
Method in brief: as §1

[10] = test system: Pseudomonas aeruginosa; details: Pseudomonas aeruginosa; for Minimum inhibitory concentration, Average: average of triplicates
Method in brief: as §1

[11] = CLSI M27-A3, 0.5 to 256 μM tested, triplicate 1, also published in ref 7

Sequence	Minimum inhibitory concentration ([1]; CLSI M7-A10, triplicate 1)	Minimum inhibitory concentration, Average [1]	Minimum inhibitory concentration ([1]; triplicate 2)	Minimum inhibitory concentration ([1]; triplicate 3)	Minimum inhibitory concentration ([2]; CLSI M7-A10, triplicate 1)	Minimum inhibitory concentration, Average [2]	Minimum inhibitory concentration ([2]; triplicate 2)	Minimum inhibitory concentration ([2]; triplicate 3)	Minimum inhibitory concentration ([3]; CLSI M7-A10, triplicate 1)	Minimum inhibitory concentration, Average [3]	Minimum inhibitory concentration ([3]; triplicate 2)	Minimum inhibitory concentration ([3]; triplicate 3)	Minimum inhibitory concentration ([4]; CLSI M7-A10, triplicate 1)	Minimum inhibitory concentration, Average [4]	Minimum inhibitory concentration ([4]; triplicate 2)	Minimum inhibitory concentration ([4]; triplicate 3)	Minimum inhibitory concentration ([5]; CLSI M7-A10, triplicate 1)	Minimum inhibitory concentration, Average [5]	Minimum inhibitory concentration ([5]; triplicate 2)	Minimum inhibitory concentration ([5]; triplicate 3)	other results
GSLHGFMYRYLKNMVLNLF [Cs01]	32 µM	32.0 µM	32 µM	32 µM	16 µM	16.0 µM	16 µM	16 µM	128 µM	128.0 µM	128 µM	128 µM	64 µM	64.0 µM	64 µM	64 µM	4 µM	4.0 µM	4 µM	4 µM	Minimum inhibitory concentration ([6]; CLSI M7-A10, triplicate 1): 8 µM; Minimum inhibitory concentration, Average [6]: 8.0 µM; Minimum inhibitory concentration ([6]; triplicate 2): 8 µM; Minimum inhibitory concentration ([6]; triplicate 3): 8 µM; Minimum inhibitory concentration ([7]; CLSI M27-A3, triplicate 1): 8 µM; Minimum inhibitory concentration, Average [7]: 8.0 µM; Minimum inhibitory concentration ([7]; triplicate 2): 8 µM; Minimum inhibitory concentration ([7]; triplicate 3): 8 µM; Minimum inhibitory concentration [8, 11]: 2 µM; Minimum inhibitory concentration, Average [8]: 2.7 µM; Minimum inhibitory concentration ([8]; triplicate 2): 2 µM; Minimum inhibitory concentration ([8]; triplicate 3): 4 µM; Minimum inhibitory concentration ([9]; CLSI M7-A10, triplicate 1): 64 µM; Minimum inhibitory concentration, Average [9]: 64.0 µM; Minimum inhibitory concentration ([9]; triplicate 2): 64 µM; Minimum inhibitory concentration ([9]; triplicate 3): 64 µM; Minimum inhibitory concentration ([10]; CLSI M7-A10, triplicate 1): 32 µM; Minimum inhibitory concentration, Average [10]: 32.0 µM; Minimum inhibitory concentration ([10]; triplicate 2): 32 µM; Minimum inhibitory concentration ([10]; triplicate 3): 32 µM
KVLSKVHTLLKAVLAL [At02]	2 µM	2.0 µM	2 µM	2 µM	4 µM	4.0 µM	4 µM	4 µM	1 µM	1.0 µM	1 µM	1 µM	1 µM	1.0 µM	1 µM	1 µM	4 µM	4.0 µM	4 µM	4 µM	Minimum inhibitory concentration ([6]; CLSI M7-A10, triplicate 1): 1 µM; Minimum inhibitory concentration, Average [6]: 1.0 µM; Minimum inhibitory concentration ([6]; triplicate 2): 1 µM; Minimum inhibitory concentration ([6]; triplicate 3): 1 µM; Minimum inhibitory concentration ([7]; CLSI M27-A3, triplicate 1): 4 µM; Minimum inhibitory concentration, Average [7]: 4.0 µM; Minimum inhibitory concentration ([7]; triplicate 2): 4 µM; Minimum inhibitory concentration ([7]; triplicate 3): 4 µM; Minimum inhibitory concentration [8, 11]: 8 µM; Minimum inhibitory concentration, Average [8]: 8.0 µM; Minimum inhibitory concentration ([8]; triplicate 2): 8 µM; Minimum inhibitory concentration ([8]; triplicate 3): 8 µM; Minimum inhibitory concentration ([9]; CLSI M7-A10, triplicate 1): 2 µM; Minimum inhibitory concentration, Average [9]: 3.3 µM; Minimum inhibitory concentration ([9]; triplicate 2): 4 µM; Minimum inhibitory concentration ([9]; triplicate 3): 4 µM; Minimum inhibitory concentration ([10]; CLSI M7-A10, triplicate 1): 4 µM; Minimum inhibitory concentration, Average [10]: 5.3 µM; Minimum inhibitory concentration ([10]; triplicate 2): 4 µM; Minimum inhibitory concentration ([10]; triplicate 3): 8 µM
ANRLLEAYKMLLKFLGNLR [Gr02]	4 µM	4.0 µM	4 µM	4 µM	2 µM	2.0 µM	2 µM	2 µM	1 µM	1.0 µM	1 µM	1 µM	4 µM	4.0 µM	4 µM	4 µM	1 µM	1.0 µM	1 µM	1 µM	Minimum inhibitory concentration ([6]; CLSI M7-A10, triplicate 1): 1 µM; Minimum inhibitory concentration, Average [6]: 1.0 µM; Minimum inhibitory concentration ([6]; triplicate 2): 1 µM; Minimum inhibitory concentration ([6]; triplicate 3): 1 µM; Minimum inhibitory concentration ([7]; CLSI M27-A3, triplicate 1): 2 µM; Minimum inhibitory concentration, Average [7]: 2.7 µM; Minimum inhibitory concentration ([7]; triplicate 2): 2 µM; Minimum inhibitory concentration ([7]; triplicate 3): 4 µM; Minimum inhibitory concentration [8, 11]: 4 µM; Minimum inhibitory concentration, Average [8]: 4.0 µM; Minimum inhibitory concentration ([8]; triplicate 2): 4 µM; Minimum inhibitory concentration ([8]; triplicate 3): 4 µM; Minimum inhibitory concentration ([9]; CLSI M7-A10, triplicate 1): 4 µM; Minimum inhibitory concentration, Average [9]: 4.0 µM; Minimum inhibitory concentration ([9]; triplicate 2): 4 µM; Minimum inhibitory concentration ([9]; triplicate 3): 4 µM; Minimum inhibitory concentration ([10]; CLSI M7-A10, triplicate 1): 32 µM; Minimum inhibitory concentration, Average [10]: 32.0 µM; Minimum inhibitory concentration ([10]; triplicate 2): 32 µM; Minimum inhibitory concentration ([10]; triplicate 3): 32 µM
